The values that follow are results of earlier work, collected in patent publication US20250268979A1, “COMBINATION OF MACROCYCLIC CFTR MODULATORS WITH CFTR CORRECTORS AND / OR CFTR POTENTIATORS” (Idorsia Pharmaceuticals Ltd, priority 2022, published 2025).

SMILES strings stand for the structures. Like-named read-outs stand apart in the source and are kept apart here.

The subject of data set [1] is CF patients carrying at least one F508del-CFTR allele.
The test system of data set [2] is F508del-CFTR homozygous patients. Particulars: Keating, 2018.
Data set [3] relates to CF patients with ivacaftor-responsive CFTR mutations. Particulars: for mean ctrough plasma concentration: 4 weeks of treatment; for absolute change from baseline in sweat chloride compared to ivacaftor 150 mg b.i.d. / ppFEV1 treatment difference versus ivacaftor 150 mg b.i.d.: 12 weeks.
In data set [4] the test system is healthy subjects.
Data set [5] concerns CF patients carrying class III, IV CFTR mutations on one allele.
The test system of data set [6] is patients homozygous for the F508del-CFTR mutation. The settings on record: 450 mg b.i.d.
For data set [7], the system named is healthy volunteers. Particulars: up to 1000 mg following SAD and up to 750 mg b.i.d. following MAD.
Data set [8] deals with patients with moderate to severe COPD and symptoms of chronic bronchitis. The settings on record: 300 mg b.i.d., 4 weeks.
For data set [9], the system named is CF patients homozygous for the F508del-CFTR mutation.
The target of data set [10] is T1, F508del-CFTR (Homo sapiens, UniProt P13569, DEL508-508).
T1 construct: from tissue; host or cells: reconstituted bronchial epithelium from CF patients
T1 sequence (P13569 with tags, fused parts or gaps DEL508-508): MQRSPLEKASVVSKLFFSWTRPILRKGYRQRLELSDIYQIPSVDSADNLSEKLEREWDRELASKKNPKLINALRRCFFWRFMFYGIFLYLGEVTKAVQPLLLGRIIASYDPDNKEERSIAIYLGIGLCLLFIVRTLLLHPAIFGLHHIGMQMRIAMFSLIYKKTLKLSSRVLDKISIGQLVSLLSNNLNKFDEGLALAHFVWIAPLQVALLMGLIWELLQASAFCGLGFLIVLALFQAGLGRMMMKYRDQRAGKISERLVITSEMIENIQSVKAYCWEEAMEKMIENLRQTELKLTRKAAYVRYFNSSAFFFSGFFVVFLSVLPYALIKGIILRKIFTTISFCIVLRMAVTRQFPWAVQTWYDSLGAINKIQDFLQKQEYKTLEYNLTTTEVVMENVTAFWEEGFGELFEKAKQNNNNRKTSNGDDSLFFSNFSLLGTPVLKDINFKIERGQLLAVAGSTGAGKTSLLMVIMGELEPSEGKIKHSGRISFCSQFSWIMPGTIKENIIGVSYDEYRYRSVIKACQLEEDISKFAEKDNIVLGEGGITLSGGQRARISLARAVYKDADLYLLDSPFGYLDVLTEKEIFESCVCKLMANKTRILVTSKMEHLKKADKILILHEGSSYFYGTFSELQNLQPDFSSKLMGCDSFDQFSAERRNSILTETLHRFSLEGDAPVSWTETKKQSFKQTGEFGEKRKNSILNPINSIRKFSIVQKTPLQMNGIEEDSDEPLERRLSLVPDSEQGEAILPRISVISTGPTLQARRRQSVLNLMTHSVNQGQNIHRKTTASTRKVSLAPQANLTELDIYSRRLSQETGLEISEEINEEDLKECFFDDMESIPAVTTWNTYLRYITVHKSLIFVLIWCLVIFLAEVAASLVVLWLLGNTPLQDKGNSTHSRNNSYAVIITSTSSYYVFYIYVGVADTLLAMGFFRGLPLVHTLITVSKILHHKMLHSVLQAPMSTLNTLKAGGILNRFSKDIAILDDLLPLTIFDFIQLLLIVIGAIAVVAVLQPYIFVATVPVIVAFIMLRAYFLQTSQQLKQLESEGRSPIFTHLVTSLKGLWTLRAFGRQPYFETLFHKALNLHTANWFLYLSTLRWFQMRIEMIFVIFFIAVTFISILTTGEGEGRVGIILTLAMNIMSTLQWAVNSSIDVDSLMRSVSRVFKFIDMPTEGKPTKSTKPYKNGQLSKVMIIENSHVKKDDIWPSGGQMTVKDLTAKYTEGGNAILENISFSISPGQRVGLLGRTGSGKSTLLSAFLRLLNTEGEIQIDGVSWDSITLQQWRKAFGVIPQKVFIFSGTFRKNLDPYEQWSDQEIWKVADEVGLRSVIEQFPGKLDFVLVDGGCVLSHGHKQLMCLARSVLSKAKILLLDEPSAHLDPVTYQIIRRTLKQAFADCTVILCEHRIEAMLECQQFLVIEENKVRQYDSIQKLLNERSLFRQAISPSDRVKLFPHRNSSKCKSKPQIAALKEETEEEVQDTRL
The settings on record: homozygous F508del-CFTR doners; in the presence of potentiator GLPG1837.

For data set [11], the target named is T1, F508del-CFTR.
The mark [12] stands for this setting: 14 days, PTI-801 600 mg triple combination.
The mark [13] stands for this setting: patients predisposed to rapid pulmonary decline, combo regimen with 600 mg PTI-801.

As to `Cc1c(-c2cc(C(=O)O)c3c(O[C@H](C)C4CCOCC4)ccc(C)c3n2)oc2ccccc12` [PTI-801], in [1] (setting [12]), the “decrease in sweat chloride compared with before treatment” value is 19 mM and the “decrease in sweat chloride compared with placebo” value was 24 mM. Also, in [1] (14 days, PTI-801 600 mg with PTI-808 150 mg and PTI-428 30 mg), the “increase in mean absolute ppFEV1 compared with before the treatment” value is 5%. Moreover, in data set [1] (setting [13]), the “improvement in ppFEV1 compared with before treatment” value was 6% and the “improvement in ppFEV1 compared with placebo” value was 8%.
`Cc1nn(C)cc1S(=O)(=O)NC(=O)c1ccc(-n2ccc(OCC(C)(C)C(F)(F)F)n2)nc1N1C[C@@H](C)CC1(C)C` [elexacaftor, N-(1,3-dimethyl-1H-pyrazole-4-sulfonyl)-6-[3-(3,3,3-trifluoro-2,2-dimethylpropoxy)-1H-pyrazol-1-yl]-2-[(4S)-2,2,4-trimethylpyrrolidin-1-yl]pyridine-3-carboxamide]: in data set [2], the “ppFEV1 increase on adding to basal treatment of tezacaftor+ivacaftor (SYMDEKO)” value is listed as 10%.
`[2H]C([2H])([2H])C(c1cc(C(C)(C)C)c(NC(=O)c2c[nH]c3ccccc3c2=O)cc1O)(C([2H])([2H])[2H])C([2H])([2H])[2H]` [deutivacaftor, N-[2-tert-butyl-4-[1,1,1,3,3,3-hexadeuterio-2-(trideuteriomethyl)propan-2-yl]-5-hydroxyphenyl]-4-oxo-1H-quinoline-3-carboxamide]: in [3] (150 mg once daily), the “mean ctrough plasma concentration” value was 458 ng/mL, the “absolute change from baseline in sweat chloride compared to ivacaftor 150 mg b.i.d.” value is “+2.4 mM” and the “ppFEV1 treatment difference versus ivacaftor 150 mg b.i.d.” value is on record as “+3.9%”. In [3] (250 mg once daily), the “mean ctrough plasma concentration” value was 1100 ng/mL, the “absolute change from baseline in sweat chloride compared to ivacaftor 150 mg b.i.d.” value is -7.4 mM and the “ppFEV1 treatment difference versus ivacaftor 150 mg b.i.d.” value is “+3.5%”.
As for `Nc1cc(S(=O)(=O)c2ccc(OC(F)(F)F)cc2)cnc1-c1nnc(CO)o1` [navocaftor, (5-(3-Amino-5-((4-(trifluoromethoxy)phenyl)sulfonyl)pyridin-2-yl)-1,3,4-oxadiazol-2-yl) methanol], the “navocaftor exposure in the presence of galicaftor” value in data set [4] (in vivo) is listed as “not apparently altered”. In addition, the tolerability result in data set [4] (up to 1000 mg single dose and up to 500 mg b.i.d. for 14 days) is given as “generally well tolerated”.
Take `COc1nc(C(=O)NC[C@](C)(O)C(F)(F)F)c(N)cc1C(F)(F)F` [icenticaftor, 3-Amino-6-methoxy-N-[(2S)-3,3,3-trifluoro-2-hydroxy-2-methylpropyl]-5-(trifluoromethyl)pyridine-2-carboxamide]: in data set [5] (450 mg b.i.d., 14 days), the “LCI2.5 compared to placebo” value was −1.13, the “ppFEV1 increase versus placebo” value is on record as 6.5% and the “sweat chloride concentration versus placebo” value is -8.4 mM. The “tolerability in CF patients” value in data set [5] (150 and 450 mg b.i.d., across all patient sub-groups) is “well tolerated”. Besides, the “sweat chloride and lung function” value in data set [6] is reported as “no reduction in sweat chloride or improvement in lung function”. Further, in data set [7], the tolerability result is on record as “well tolerated”. In addition, the “LCI2.5 compared to placebo” value in data set [8] is “did not change”. Further, in data set [8] (average baseline 23 mM), the “sweat chloride compared to placebo” value is -5.04 mM. In addition, the “FEV1 compared to placebo” value in [8] (average baseline 1.4-1.5 L) was 0.05 to 0.06 L. Moreover, in [8] (average baseline 3.2 g/L), the “plasma fibrinogen compared to placebo” value was -0.39 g/L.
Turning to `O=C(O)c1ccc([C@H]2C[C@@H](NC(=O)C3(c4ccc5c(c4)OC(F)(F)O5)CC3)c3ccc(OC(F)F)cc3O2)cc1` [galicaftor, 4-[(2R,4R)-4-({[1-(2,2-Difluoro-1,3-benzodioxol-5-yl)cyclopropyl]carbonyl}amino)-7-(difluoromethoxy)-3,4-dihydro-2H-chromen-2-yl]benzoic Acid], the “change in sweat chloride versus placebo” value in data set [9] (200 mg dose group, day 29) is -15.8 mM. In addition, in data set [9] (4 weeks, once-daily 50, 100, 200 and 400 mg), the tolerability and safety result was “well tolerated and safe”. In data set [9] (day 29), the “change from baseline in CFQ-R score versus placebo” value is listed as “No significant changes versus placebo” and the “change from baseline in ppFEV1 versus placebo” value is listed as “No significant changes versus placebo”. The EC50 in data set [10] is 5 nM. For the same compound, the “galicaftor exposure in the presence of two different doses of navocaftor” value in data set [4] (in vivo) is on record as “similar”.
Regarding `CC(C)(C)c1cc(C(C)(C)C)c(NC(=O)c2c[nH]c3ccccc3c2=O)cc1O` [ivacaftor, N-(2,4-di-tert-butyl-5-hydroxyphenyl)-1,4-dihydro-4-oxoquinoline-3-carboxamide], in [3] (150 mg b.i.d.), the “mean ctrough plasma concentration” value is 952 ng/mL. Further, the “further augmentation of function on addition to tezacaftor and elexacaftor” value in data set [11] (Keating, 2018) is 2 fold. Also, the “augmentation of CFTR function on addition to lumacaftor-corrected F508del-CFTR” value in data set [11] (van Goor, 2011) was “almost two-fold”.
